According to US10463644B2, “Uses of sesquiterpene lactone compounds and their derivatives in drugs preparation” (ACCENDATECH, priority 2013, dated 2019):
Where two headings read alike, the source gives them in different places.

How the values were obtained:
[1] = tested on: cancer stem cells; assay: Survival rate of cancer stem cells after test compound is added (flow cytometry, Annexin V-FITC/PI, clinical specimen); format: cell-based, patient; conditions: Homo sapiens, 18 h
Outline: (§1)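 Patient specimens (e.g. AML, CD34+/CD38+ stem-cell marker) separated on Ficoll; mononuclear cells at 1×10^6/mL in serum-free IMDM treated 18 h with compound. Cells stained for stem-cell markers, then Annexin V-FITC/PI, and apoptosis measured by flow cytometry within one hour.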

[2] = tested on: cancer cells; assay: Survival rate of cancer cells after test compound is added (flow cytometry, Annexin V-FITC/PI, clinical specimen); format: cell-based, patient; conditions: Homo sapiens, 18 h, read-out: Survival rate (%) All cells (Stem cells and ordinary cells)
Outline: as §1

[3] = tested on: TNF-α secreted by synoviocyte; assay: Content of TNF-α in culture supernatant of synoviocyte of RA model rats given test compound; format: in vivo; conditions: rat RA model, dose 30 mg/kg.2d; normal control 0.38 ± 0.027, NaCl 0.74 ± 0.098
Outline: (§2)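 Rat RA model: compounds given at 30 mg/kg.2d, with normal control and NaCl groups. Synoviocyte culture supernatants assayed for secreted TNF-α and PGE2 by one referenced method, IL-1β by another.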

[4] = tested on: IL-1β secreted by synoviocyte; assay: Content of IL-1β in culture supernatant of synoviocyte of RA model rats given test compound; format: in vivo; conditions: rat RA model, dose 30 mg/kg.2d; normal control 0.16 ± 0.034, NaCl 0.49 ± 0.136
Outline: as §2

[5] = tested on: normal cells; assay: Survival rate of normal cells after test compound is added (flow cytometry, Annexin V-FITC/PI); format: cell-based; conditions: 18 h
Outline: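 Ficoll-isolated mononuclear cells from patient specimens (e.g. AML) in serum-free IMDM at 1×10^6/mL were exposed to compound for 18 hours. Cells were stained for stem-cell markers (CD34+CD38+ for AML) plus Annexin V-FITC/PI, and apoptosis was read by flow cytometry within one hour.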

[6] = Head and neck squamous cell carcinomas
[7] = read-out: Survival rate (%) All cells (Stem cells and ordinary cells)
[8] = read-out: Survival rate (%) Stem cells

C=C1CC[C@H]2C(=C)CC[C@H]3C(=C)C(=O)O[C@@H]3[C@@H]12 [Compound 25]
viability at 10 µM ([1]; AML): 35% | viability at 20 µM ([1]; AML): 26% | viability at 10 µM ([1]; Brain glioma): 62% | viability at 20 µM ([1]; Brain glioma): 47% | viability at 10 µM ([1]; Brain tumor): 72% | viability at 20 µM ([1]; Brain tumor): 66% | viability at 10 µM ([1]; Breast cancer): 66% | viability at 20 µM ([1]; Breast cancer): 52% | viability at 10 µM ([1]; CLL): 46% | viability at 20 µM ([1]; CLL): 34% | viability at 10 µM ([1]; CML): 57% | viability at 20 µM ([1]; CML): 36% | viability at 10 µM ([1]; Children hepatoblastoma): 44% | viability at 20 µM ([1]; Children hepatoblastoma): 39% | viability at 10 µM ([1]; Colon adenocarcinoma): 42% | viability at 20 µM ([1]; Colon adenocarcinoma): 35% | viability at 10 µM ([1]; Colorectal cancer): 62% | viability at 20 µM ([1]; Colorectal cancer): 55% | viability at 10 µM ([1]; Gastric cancer): 43% | viability at 20 µM ([1]; Gastric cancer): 37% | viability at 10 µM ([1]; Gastrointestinal tumor): 54% | viability at 20 µM ([1]; Gastrointestinal tumor): 44% | viability at 10 µM ([1]; Glioma): 71% | viability at 20 µM ([1]; Glioma): 65% | viability at 10 µM [1, 6]: 56% | viability at 20 µM [1, 6]: 47% | viability at 10 µM ([1]; Laryngeal cancer): 64% | viability at 20 µM ([1]; Laryngeal cancer): 53% | viability at 10 µM ([1]; Liver cancer): 52% | viability at 20 µM ([1]; Liver cancer): 46% | viability at 10 µM ([1]; Lung adenocarcinoma): 46% | viability at 20 µM ([1]; Lung adenocarcinoma): 34% | viability at 10 µM ([1]; Lung cancer): 42% | viability at 20 µM ([1]; Lung cancer): 29% | viability at 10 µM ([1]; Malignant melanoma): 62% | viability at 20 µM ([1]; Malignant melanoma): 54% | viability at 10 µM ([1]; Nasopharynx cancer): 45% | viability at 20 µM ([1]; Nasopharynx cancer): 37% | viability at 10 µM ([1]; Ovarian cancer): 64% | viability at 20 µM ([1]; Ovarian cancer): 55% | viability at 10 µM ([1]; Pancreatic cancer): 54% | viability at 20 µM ([1]; Pancreatic cancer): 36% | viability at 10 µM ([1]; Prostate cancer): 44% | viability at 20 µM ([1]; Prostate cancer): 31% | viability at 10 µM ([1]; Retinoblastoma): 55% | viability at 20 µM ([1]; Retinoblastoma): 34% | viability at 10 µM ([1]; Skin cancer): 55% | viability at 20 µM ([1]; Skin cancer): 43% | viability at 10 µM ([2]; AML): 47% | viability at 20 µM ([2]; AML): 44% | viability at 10 µM ([2]; Brain glioma): 74% | viability at 20 µM ([2]; Brain glioma): 58% | viability at 10 µM ([2]; Brain tumor): 83% | viability at 20 µM ([2]; Brain tumor): 73% | viability at 10 µM ([2]; Breast cancer): 74% | viability at 20 µM ([2]; Breast cancer): 65% | viability at 10 µM ([2]; CLL): 57% | viability at 20 µM ([2]; CLL): 45% | viability at 10 µM ([2]; CML): 64% | viability at 20 µM ([2]; CML): 49% | viability at 10 µM ([2]; Children hepatoblastoma): 53% | viability at 20 µM ([2]; Children hepatoblastoma): 47% | viability at 10 µM ([2]; Colon adenocarcinoma): 55% | viability at 20 µM ([2]; Colon adenocarcinoma): 49% | viability at 10 µM ([2]; Colorectal cancer): 76% | viability at 20 µM ([2]; Colorectal cancer): 66% | viability at 10 µM ([2]; Gastric cancer): 54% | viability at 20 µM ([2]; Gastric cancer): 47% | viability at 10 µM ([2]; Gastrointestinal tumor): 63% | viability at 20 µM ([2]; Gastrointestinal tumor): 52% | viability at 10 µM ([2]; Glioma): 83% | viability at 20 µM ([2]; Glioma): 74% | viability at 10 µM [2, 6]: 67% | viability at 20 µM [2, 6]: 58% | viability at 10 µM ([2]; Laryngeal cancer): 74% | viability at 20 µM ([2]; Laryngeal cancer): 64% | viability at 10 µM ([2]; Liver cancer): 65% | viability at 20 µM ([2]; Liver cancer): 54% | viability at 10 µM ([2]; Lung adenocarcinoma): 57% | viability at 20 µM ([2]; Lung adenocarcinoma): 46% | viability at 10 µM ([2]; Lung cancer): 54% | viability at 20 µM ([2]; Lung cancer): 37% | viability at 10 µM ([2]; Malignant melanoma): 81% | viability at 20 µM ([2]; Malignant melanoma): 66% | viability at 10 µM ([2]; Nasopharynx cancer): 54% | viability at 20 µM ([2]; Nasopharynx cancer): 48% | viability at 10 µM ([2]; Ovarian cancer): 76% | viability at 20 µM ([2]; Ovarian cancer): 67% | viability at 10 µM ([2]; Pancreatic cancer): 64% | viability at 20 µM ([2]; Pancreatic cancer): 48% | viability at 10 µM ([2]; Prostate cancer): 56% | viability at 20 µM ([2]; Prostate cancer): 44% | viability at 10 µM ([2]; Retinoblastoma): 64% | viability at 20 µM ([2]; Retinoblastoma): 54% | viability at 10 µM ([2]; Skin cancer): 66% | viability at 20 µM ([2]; Skin cancer): 58% | Content of TNF-α in culture supernatant of synoviocyte (x ± s) [3]: 0.58 ± 0.056 ng/mL | Content of IL-1β in culture supernatant of synoviocyte (x ± s) [4]: 0.39 ± 0.067 ng/mL | viability at 10 µM [5, 7]: 93% | viability at 10 µM [5, 8]: 89% | viability at 20 µM [5, 7]: 91% | viability at 20 µM [5, 8]: 88%
